Earlier results in patent US8933112B2, “Topical liquid to ameliorate pain and promote healing of burn-injured skin” (Memphaceuticals, LLC, priority 2012, dated 2015).

Tests used:
[1] = target: T1, nitric-oxide synthase in bovine brain (Bos taurus, UniProt A0A3Q1M6M2)
T1 construct: nitric-oxide synthase in bovine brain; host or cells: bovine brain

[2] = tested on: Lewis lung carcinoma cells and CT-26 colon adenocarcinoma cells
[3] = tested on: human T lymphocytes; conditions: by blocking Ca2+-sensitive K+ channels
[4] = tested on: Ca^2+-dependent K^+ channels of human red blood cells, rat thymocytes, and Ehrlich ascites tumor cells; conditions: among tioconazole, miconazole, econazole, clotrimazole
[5] = target: T2, 6-phosphofructo-1-kinase (PFK) (Oryctolagus cuniculus, UniProt P00511); conditions: independent of anti-calmodulin activity
T2 sequence (P00511 2-780 limits assumed): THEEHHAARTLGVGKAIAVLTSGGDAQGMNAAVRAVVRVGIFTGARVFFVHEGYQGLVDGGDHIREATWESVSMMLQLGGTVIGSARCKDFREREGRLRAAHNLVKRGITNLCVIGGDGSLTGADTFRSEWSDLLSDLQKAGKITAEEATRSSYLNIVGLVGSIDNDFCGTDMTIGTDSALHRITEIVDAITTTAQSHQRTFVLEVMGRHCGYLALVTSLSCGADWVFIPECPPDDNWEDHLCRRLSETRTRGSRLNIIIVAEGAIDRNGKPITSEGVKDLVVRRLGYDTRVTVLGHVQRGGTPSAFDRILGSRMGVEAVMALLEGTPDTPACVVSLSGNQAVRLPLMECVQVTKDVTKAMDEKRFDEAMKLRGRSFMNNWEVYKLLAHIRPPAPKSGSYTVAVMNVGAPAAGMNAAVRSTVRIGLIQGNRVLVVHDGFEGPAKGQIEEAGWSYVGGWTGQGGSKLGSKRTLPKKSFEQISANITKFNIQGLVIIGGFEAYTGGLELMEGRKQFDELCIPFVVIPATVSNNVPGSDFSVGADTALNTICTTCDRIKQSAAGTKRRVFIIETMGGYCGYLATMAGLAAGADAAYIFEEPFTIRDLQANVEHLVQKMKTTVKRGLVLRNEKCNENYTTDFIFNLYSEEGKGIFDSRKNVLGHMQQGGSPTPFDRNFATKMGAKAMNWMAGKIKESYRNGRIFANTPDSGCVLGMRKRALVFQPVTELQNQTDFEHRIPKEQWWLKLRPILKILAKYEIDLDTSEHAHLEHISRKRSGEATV

T1 sequence (A0A3Q1M6M2 1-1468): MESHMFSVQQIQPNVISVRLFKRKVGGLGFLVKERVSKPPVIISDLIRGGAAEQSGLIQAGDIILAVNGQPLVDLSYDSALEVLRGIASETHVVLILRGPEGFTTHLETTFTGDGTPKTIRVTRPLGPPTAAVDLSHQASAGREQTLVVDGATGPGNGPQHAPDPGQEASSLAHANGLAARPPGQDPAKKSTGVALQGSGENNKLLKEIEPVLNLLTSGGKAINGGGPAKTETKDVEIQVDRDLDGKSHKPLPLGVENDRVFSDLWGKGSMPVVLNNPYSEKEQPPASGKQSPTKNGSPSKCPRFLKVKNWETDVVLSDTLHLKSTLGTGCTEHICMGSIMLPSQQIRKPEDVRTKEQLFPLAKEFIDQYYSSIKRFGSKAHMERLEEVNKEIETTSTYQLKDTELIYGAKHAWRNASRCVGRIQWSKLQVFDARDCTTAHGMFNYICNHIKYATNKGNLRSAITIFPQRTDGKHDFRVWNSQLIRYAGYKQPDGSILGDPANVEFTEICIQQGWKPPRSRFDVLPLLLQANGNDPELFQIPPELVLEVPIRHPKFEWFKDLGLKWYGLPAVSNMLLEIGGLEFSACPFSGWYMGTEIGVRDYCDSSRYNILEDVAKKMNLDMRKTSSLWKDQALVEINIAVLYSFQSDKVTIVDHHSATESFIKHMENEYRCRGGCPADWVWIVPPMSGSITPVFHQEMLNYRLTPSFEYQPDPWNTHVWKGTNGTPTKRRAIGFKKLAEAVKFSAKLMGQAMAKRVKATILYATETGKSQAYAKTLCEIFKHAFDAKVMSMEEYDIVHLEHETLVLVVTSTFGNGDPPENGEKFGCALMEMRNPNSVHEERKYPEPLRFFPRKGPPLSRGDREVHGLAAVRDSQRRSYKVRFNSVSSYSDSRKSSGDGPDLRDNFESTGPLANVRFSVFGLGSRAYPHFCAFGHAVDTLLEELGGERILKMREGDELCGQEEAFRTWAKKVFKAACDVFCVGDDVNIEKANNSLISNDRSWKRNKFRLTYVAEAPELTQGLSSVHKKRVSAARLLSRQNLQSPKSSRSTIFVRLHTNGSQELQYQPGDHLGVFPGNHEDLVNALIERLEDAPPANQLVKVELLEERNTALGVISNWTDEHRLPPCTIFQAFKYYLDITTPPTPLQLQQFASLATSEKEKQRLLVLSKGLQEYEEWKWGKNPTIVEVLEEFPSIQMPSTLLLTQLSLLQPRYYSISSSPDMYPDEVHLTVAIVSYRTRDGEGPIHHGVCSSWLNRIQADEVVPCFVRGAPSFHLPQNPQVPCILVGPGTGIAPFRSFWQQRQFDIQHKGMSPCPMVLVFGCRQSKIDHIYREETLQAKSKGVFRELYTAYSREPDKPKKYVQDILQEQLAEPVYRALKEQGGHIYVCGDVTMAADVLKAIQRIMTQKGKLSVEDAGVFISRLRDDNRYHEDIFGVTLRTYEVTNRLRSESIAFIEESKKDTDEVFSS

citrulline formation by nitric-oxide synthase ([1]; bovine brain): inhibited citrulline formation
inhibition of PFK [5]: directly inhibits
SMILES: Clc1ccccc1C(c1ccccc1)(c1ccccc1)n1ccnc1 [clotrimazole, 1-(o-chloro-α,α-diphenylbenzyl)imidazole]
cytochrome-c reductase activity of nitric-oxide synthase ([1]; calmodulin-dependent fashion): inhibited the cytochrome-c reductase activity
levels of glucose 1,6-bisphosphate, fructose 1,6-bisphosphate, ATP, and cell viability [2]: significant reduction
activation of human T lymphocytes [3]: inhibits activation
inhibition of Ca2+-dependent K+ channels [4]: most potent inhibitor
